Results on 30 compounds are retold here after patent publication US9546164B2 (GENENTECH, INC., priority 2013, dated 2017).

The structures appear in SMILES notation. Where a name gives a salt, the structure may show the parent alone.

In one assay the target is hNav1.7 (Homo sapiens (Human), UniProt Q15858). As to the kind of experiment: Tritiated sulfonamide competitive binding to membranes from cells expressing hNav1.7 and the β1 subunit.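 Also: Filter-bound radioactivity counted by liquid scintillation, nonspecific binding defined with excess unlabelled ligand, IC50 fitted to percent inhibition of specific binding.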
Sequence of hNav1.7 (Q15858 other isoform, or with tags, fused parts or gaps): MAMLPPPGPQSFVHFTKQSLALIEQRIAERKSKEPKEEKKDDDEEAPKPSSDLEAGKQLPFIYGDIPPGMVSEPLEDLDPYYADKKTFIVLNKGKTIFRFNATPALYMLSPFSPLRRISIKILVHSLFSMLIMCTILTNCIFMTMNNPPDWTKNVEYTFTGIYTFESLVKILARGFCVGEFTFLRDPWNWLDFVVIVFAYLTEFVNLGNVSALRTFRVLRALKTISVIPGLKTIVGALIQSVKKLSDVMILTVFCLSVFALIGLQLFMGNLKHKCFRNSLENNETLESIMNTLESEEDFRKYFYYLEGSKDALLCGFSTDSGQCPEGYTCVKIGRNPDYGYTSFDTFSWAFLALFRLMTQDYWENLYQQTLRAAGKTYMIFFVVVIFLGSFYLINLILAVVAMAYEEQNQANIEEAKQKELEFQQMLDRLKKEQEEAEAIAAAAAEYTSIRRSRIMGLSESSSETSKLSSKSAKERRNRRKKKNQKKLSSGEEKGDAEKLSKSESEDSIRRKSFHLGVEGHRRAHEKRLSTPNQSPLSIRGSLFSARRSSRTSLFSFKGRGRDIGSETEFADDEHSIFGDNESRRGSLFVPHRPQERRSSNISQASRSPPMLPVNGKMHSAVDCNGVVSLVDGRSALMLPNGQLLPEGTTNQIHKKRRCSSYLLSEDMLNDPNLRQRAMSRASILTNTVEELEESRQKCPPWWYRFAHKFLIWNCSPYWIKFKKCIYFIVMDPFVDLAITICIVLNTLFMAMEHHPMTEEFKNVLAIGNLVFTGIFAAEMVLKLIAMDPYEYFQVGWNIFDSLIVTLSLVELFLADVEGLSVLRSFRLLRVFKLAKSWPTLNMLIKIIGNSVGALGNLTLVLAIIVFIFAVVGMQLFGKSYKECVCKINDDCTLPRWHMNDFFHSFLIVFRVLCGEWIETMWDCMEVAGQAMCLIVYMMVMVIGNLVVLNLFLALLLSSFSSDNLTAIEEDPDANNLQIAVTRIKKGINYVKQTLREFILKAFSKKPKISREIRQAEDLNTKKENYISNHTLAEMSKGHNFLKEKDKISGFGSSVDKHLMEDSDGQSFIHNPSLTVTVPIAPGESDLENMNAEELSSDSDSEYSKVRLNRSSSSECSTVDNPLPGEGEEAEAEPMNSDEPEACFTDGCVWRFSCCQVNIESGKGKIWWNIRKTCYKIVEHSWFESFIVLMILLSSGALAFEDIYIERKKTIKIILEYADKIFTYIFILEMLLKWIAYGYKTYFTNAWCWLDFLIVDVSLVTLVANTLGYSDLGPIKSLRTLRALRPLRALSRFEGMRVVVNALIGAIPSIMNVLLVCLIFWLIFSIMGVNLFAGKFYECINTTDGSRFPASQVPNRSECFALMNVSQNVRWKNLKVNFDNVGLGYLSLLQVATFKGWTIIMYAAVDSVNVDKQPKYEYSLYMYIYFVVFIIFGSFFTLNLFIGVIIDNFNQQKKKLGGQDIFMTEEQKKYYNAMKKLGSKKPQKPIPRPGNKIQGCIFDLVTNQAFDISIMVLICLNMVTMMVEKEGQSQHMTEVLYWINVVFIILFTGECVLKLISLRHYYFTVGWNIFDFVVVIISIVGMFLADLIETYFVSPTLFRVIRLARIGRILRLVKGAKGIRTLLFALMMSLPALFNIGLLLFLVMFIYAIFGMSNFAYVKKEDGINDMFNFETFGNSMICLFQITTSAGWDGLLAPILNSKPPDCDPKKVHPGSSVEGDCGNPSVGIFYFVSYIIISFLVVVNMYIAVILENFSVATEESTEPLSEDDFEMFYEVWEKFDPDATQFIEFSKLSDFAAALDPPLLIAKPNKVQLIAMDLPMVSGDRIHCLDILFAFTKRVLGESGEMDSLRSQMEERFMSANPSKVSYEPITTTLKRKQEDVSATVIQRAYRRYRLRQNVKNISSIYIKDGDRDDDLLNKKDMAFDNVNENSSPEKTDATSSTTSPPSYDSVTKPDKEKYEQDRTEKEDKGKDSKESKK
Sequence of hNav1.7 (Q07699 19-218 partner): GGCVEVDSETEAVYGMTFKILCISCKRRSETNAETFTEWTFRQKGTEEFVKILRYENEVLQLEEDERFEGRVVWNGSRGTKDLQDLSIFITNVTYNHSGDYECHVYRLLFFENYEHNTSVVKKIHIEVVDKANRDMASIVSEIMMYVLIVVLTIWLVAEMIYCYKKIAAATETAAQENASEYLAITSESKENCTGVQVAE
Conditions: not given
`O=C(NS(=O)(=O)C1CC1)c1cc(C2CC2)c(CN2CCC(Sc3cc(Cl)cc(Cl)c3)CC2)cc1F` [Example 531, 5-cyclopropyl-N-(cyclopropylsulfonyl)-4-((4-((3,5-dichlorophenyl)thio)piperidin-1-yl)methyl)-2-fluorobenzamide, trifluoroacetic acid salt]: the IC50 was found to be 2.2 nM.
The same measure, in the same setting: the value for `O=C(NS(=O)(=O)C1CC1)c1cc(C2CC2)c(CN2CCC(Oc3ccc(Cl)c(Cl)c3)CC2)cc1F` [Example 510, 5-cyclopropyl-N-(cyclopropylsulfonyl)-4-((4-(3,4-dichlorophenoxy)piperidin-1-yl)methyl)-2-fluorobenzamide, trifluoroacetic acid salt] was 9.1 nM.
Same read-out and setting: the value for `CC(C)(C)N1CCC[C@@H](Oc2cc(F)c(C(=O)NS(=O)(=O)C3CC3)cc2C2CC2)C1` [Example 539, (R)-4-((1-(tert-butyl)piperidin-3-yl)oxy)-5-cyclopropyl-N-(cyclopropylsulfonyl)-2-fluorobenzamide] was 2280 nM.

Still in this assay, the particulars now being: read-out: Ligand Binding Assay; 100 pM [3H]compound, membranes with hNav1.7 and β1 subunit, 18 h, room temperature.
As for `COc1ccc(CN2CCC[C@@H](Oc3cc(F)c(C(=O)NS(C)(=O)=O)cc3C3CC3)C2)cc1OC` [Example 430, (R)-5-cyclopropyl-4-((1-(3,4-dimethoxybenzyl)piperidin-3-yl)oxy)-2-fluoro-N-(methylsulfonyl)benzamide, trifluoroacetic acid salt], the IC50 was found to be 533 nM.
Same read-out and setting: for `CCS(=O)(=O)NC(=O)c1cc(C2CC2)c(OCC2CCN([C@H](C)c3ccc(Cl)cc3Cl)CC2)cc1F` [Example 284, (R)-5-cyclopropyl-4-((1-(1-(2,4-dichlorophenyl)ethyl)piperidin-4-yl)methoxy)-N-(ethylsulfonyl)-2-fluorobenzamide] the value was 3.6 nM; for `C[C@H](c1ccc(OC(F)(F)F)cc1)N1CCC(C)(COc2cc(F)c(C(=O)NS(C)(=O)=O)cc2C2CC2)CC1` (single isomer, unassigned) [Example 249], 39 nM.
Regarding `CS(=O)(=O)NC(=O)c1cc(C2CC2)c(OCC2CN(C(c3ccccc3)c3ccc(Cl)c(Cl)c3)C2)cc1F` (stereo not drawn) [Example 80, 5-Cyclopropyl-4-((1-((3,4-dichlorophenyl)(phenyl)methyl)azetidin-3-yl)methoxy)-2-fluoro-N-(methylsulfonyl)benzamide], the IC50 stood at 4.05 nM.
Same read-out and setting: for `CCS(=O)(=O)NC(=O)c1cc(C2CC2)c(OCC2CCN(Cc3cc(C(F)(F)F)cc(C4CC4)n3)CC2)cc1F` [Example 307, 5-cyclopropyl-4-((1-((6-cyclopropyl-4-(trifluoromethyl)pyridin-2-yl)methyl)piperidin-4-yl)methoxy)-N-(ethylsulfonyl)-2-fluorobenzamide] the value was 6.7 nM; for `CC[C@@H](c1cc(Cl)cc(Cl)c1)N1CCC(COc2cc(F)c(C(=O)NS(C)(=O)=O)cc2C2CC2)CC1` [Example 241, (S)-5-cyclopropyl-4-((1-(1-(3,5-dichlorophenyl)propyl)piperidin-4-yl)methoxy)-2-fluoro-N-(methylsulfonyl)benzamide], 2.7 nM; for `C[C@@H](c1cccc(F)c1)N1CCC(C)(COc2cc(F)c(C(=O)NS(C)(=O)=O)cc2C2CC2)CC1` (single isomer, unassigned) [Example 251], 49 nM.
In the case of `CS(=O)(=O)NC(=O)c1cc(C2CC2)c(OCC2(C#N)CCN(Cc3cc(C(F)(F)F)cc(Cl)c3F)CC2)cc1F` [Example 595, 4-((1-(3-chloro-2-fluoro-5-(trifluoromethyl)benzyl)-4-cyanopiperidin-4-yl)methoxy)-5-cyclopropyl-2-fluoro-N-(methylsulfonyl)benzamide], the IC50 is 34.3 nM.
Same read-out and setting: for `O=C(NS(=O)(=O)C1CC1)c1cc(C2CC2)c(OCC2CCN(S(=O)(=O)c3ccc(C(F)(F)F)cc3)CC2)cc1F` [Example 373, 5-cyclopropyl-N-(cyclopropylsulfonyl)-2-fluoro-4-((1-((4-(trifluoromethyl)phenyl)sulfonyl)piperidin-4-yl)methoxy)benzamide] the value was 19.7 nM; for `CS(=O)(=O)NC(=O)c1cc(C2CC2)c(OCC2CN(C(c3ccccc3)c3ccccn3)C2)cc1F` (stereo in doubt) [Example 119, (S)-5-Cyclopropyl-2-fluoro-N-(methylsulfonyl)-4-((1-(phenyl(pyridin-2-yl)methyl)azetidin-3-yl)methoxy)benzamide], 306 nM.
The same measure, in the same setting: for `CC1(COc2cc(F)c(C(=O)NS(C)(=O)=O)cc2C2CC2)CCN(Cc2ccc(Cl)c(Cl)c2)CC1` [Example 575, 5-cyclopropyl-4-((1-(3,4-dichlorobenzyl)-4-methylpiperidin-4-yl)methoxy)-2-fluoro-N-(methylsulfonyl)benzamide] the value was 4.5 nM; for `CS(=O)(=O)NC(=O)c1cc(C2CC2)c(OCC2CCN(Cc3ccc(Br)cc3C(F)(F)F)CC2)cc1F` [Example 585, 4-((1-(4-bromo-2-(trifluoromethyl)benzyl)piperidin-4-yl)methoxy)-5-cyclopropyl-2-fluoro-N-(methylsulfonyl)benzamide], 3.5 nM.
Consider `CS(=O)(=O)NC(=O)c1cc(C2CC2)c(O[C@@H]2CCCN([C@@H](c3ccc(F)cc3Cl)C(F)(F)F)C2)cc1F` (single isomer, unassigned) [Example 298], for which the IC50 is 4.6 nM.
The same measure, in the same setting: for `O=C(NS(=O)(=O)C1CC1)c1cc(C2CC2)c(OCC2CCN(Cc3cc(C(F)(F)F)cc(Cl)c3F)CC2)cc1F` [Example 582, 4-((1-(3-chloro-2-fluoro-5-(trifluoromethyl)benzyl)piperidin-4-yl)methoxy)-5-cyclopropyl-N-(cyclopropylsulfonyl)-2-fluorobenzamide] the value was 4.2 nM; for `COC[C@@H](c1cc(Cl)cc(Cl)c1)N1CCC(COc2cc(F)c(C(=O)NS(=O)(=O)N3CCC3)cc2C2CC2)CC1` (single isomer, unassigned) [Example 166], 3.9 nM.
With `O=C(NS(=O)(=O)C1CC1)c1cc(C2CC2)c(OCC2CCN(S(=O)(=O)c3cccc(C(F)(F)F)c3)CC2)cc1F` [Example 375, 5-cyclopropyl-N-(cyclopropylsulfonyl)-2-fluoro-4-((1-((3-(trifluoromethyl)phenyl)sulfonyl)piperidin-4-yl)methoxy)benzamide], the IC50 was found to be 14.6 nM.
As to `CCS(=O)(=O)NC(=O)c1cc(C2CC2)c(OCC2CCN([C@@H](C)c3ccc(Cl)cc3Cl)CC2)cc1F` [Example 285, (S)-5-cyclopropyl-4-((1-(1-(2,4-dichlorophenyl)ethyl)piperidin-4-yl)methoxy)-N-(ethylsulfonyl)-2-fluorobenzamide], the IC50 turned out to be 3.3 nM.
Still for that read-out and setting: the value for `CS(=O)(=O)NC(=O)c1cc(C2CC2)c(OCC2CN([C@@H](c3ccccc3)c3cc(Cl)cc(Cl)c3)C2)cc1F` [Example 142, (S)-5-Cyclopropyl-4-((1-((3,5-dichlorophenyl)(phenyl)methyl)azetidin-3-yl)methoxy)-2-fluoro-N-(methylsulfonyl)benzamide] was 6.57 nM; that for `C[C@@H](c1ccc(F)cc1Cl)N1CCC[C@@H](Oc2cc(F)c(C(=O)NS(C)(=O)=O)cc2C2CC2)C1` [Example 295, 4-(((R)-1-((S)-1-(2-chloro-4-fluorophenyl)ethyl)piperidin-3-yl)oxy)-5-cyclopropyl-2-fluoro-N-(methylsulfonyl)benzamide] was 2.3 nM; that for `C[C@H](c1cc(Cl)cc(Cl)c1)N1[C@@H]2CC[C@H]1C[C@H](COc1cc(F)c(C(=O)NS(C)(=O)=O)cc1C1CC1)C2` [Example 353, 5-cyclopropyl-4-(((1R,3S,5S)-8-((R)-1-(3,5-dichlorophenyl)ethyl)-8-azabicyclo[3.2.1]octan-3-yl)methoxy)-2-fluoro-N-(methylsulfonyl)benzamide, trifluoroacetic acid salt] was 11 nM.
Same read-out and setting: the value for `O=C(NS(=O)(=O)C1CC1)c1cc(C2CC2)c(OCC2CCN(Cc3ccc(C4CC4)cc3Cl)CC2)cc1F` [Example 416, 4-((1-(2-chloro-4-cyclopropylbenzyl)piperidin-4-yl)methoxy)-5-cyclopropyl-N-(cyclopropylsulfonyl)-2-fluorobenzamide, trifluoroacetic acid salt] was 5.3 nM; that for `CS(=O)(=O)NC(=O)c1cc(C2CC2)c(OCC2CCN(c3cccc(Cl)c3)CC2)cc1F` [Example 294, 4-((1-(3-Chlorophenyl)piperidin-4-yl)methoxy)-5-cyclopropyl-2-fluoro-N-(methylsulfonyl)benzamide] was 3.8 nM; that for `O=C(NS(=O)(=O)C1CC1)c1cc(C2CC2)c(OC[C@@H]2C[C@H]3CC[C@@H](C2)N3Cc2cc(C(F)(F)F)ccc2Cl)cc1F` [Example 397, 4-(((1R,3S,5S)-8-(2-chloro-5-(trifluoromethyl)benzyl)-8-azabicyclo[3.2.1]octan-3-yl)methoxy)-5-cyclopropyl-N-(cyclopropylsulfonyl)-2-fluorobenzamide, trifluoroacetic acid salt] was 5.7 nM.
The same measure, in the same setting: for `C[C@H](c1cc(Cl)cc(Cl)c1)N1CCC(C)(COc2cc(F)c(C(=O)NS(C)(=O)=O)cc2C2CC2)CC1` (single isomer, unassigned) [Example 212] the value was 2.7 nM; for `O=C(NS(=O)(=O)N1CCC1)c1cc(C2CC2)c(CN2CCO[C@H](Cc3ccc(Cl)c(Cl)c3)C2)cc1F` [Example 459, (R)—N-(azetidin-1-ylsulfonyl)-5-cyclopropyl-4-((2-(3,4-dichlorobenzyl)morpholino)methyl)-2-fluorobenzamide], 12.5 nM.
Turning to `CS(=O)(=O)NC(=O)c1cc(C2CC2)c(CN2[C@@H]3CC[C@H]2C[C@@H](Oc2cc(C(F)(F)F)c(Cl)cn2)C3)cc1F` [Example 550, 4-(((1R,3r,5S)-3-((5-chloro-4-(trifluoromethyl)pyridin-2-yl)oxy)-8-azabicyclo[3.2.1]octan-8-yl)methyl)-5-cyclopropyl-2-fluoro-N-(methylsulfonyl)benzamide, trifluoroacetic acid salt], the IC50 stood at 13.6 nM.
The same measure, in the same setting: the value for `CS(=O)(=O)NC(=O)c1cc(C2CC2)c(OCC2CCN(Cc3ccccc3C(F)(F)F)CC2)cc1F` [Example 159, 5-Cyclopropyl-2-fluoro-N-(methylsulfonyl)-4-((1-(2-(trifluoromethyl)-benzyl)piperidin-4-yl)methoxy)benzamide] was 5.42 nM.
